The source of these data is US5955423A (priority 1995, dated 1999).

Like-named read-outs stand apart in the source and are kept apart here.

The test system of data set [1] is SKOV3 cells (human ovarian carcinoma). Put plainly: Cell proliferation assay (SRB staining), SKOV3 cells. Type of data set: cell-based. To be noted: SKOV3 cells treated 24 hours with IC50 doses, then drug-free medium.
Data set [2] relates to A-10 rat aortic smooth muscle cells. It counts as cell-based. Particulars: A-10 cells. The procedure:
A-10 cells were grown to near-confluency on glass coverslips in BME/10% FBS. Compounds in PBS were added to the indicated final concentrations and cells were incubated for an additional 24 hours. For the staining of microtubules and intermediate filaments, the cells were fixed with cold methanol and incubated with PBS containing 10% calf serum to block nonspecific binding sites. Cells were then incubated at 37° C. for 60 min with either monoclonal anti-p-tubulin or with monoclonal anti-vimentin at dilutions recommended by the manufacturer. Bound primary antibodies were subsequently visualized by a 45-minute incubation with fluorescein-conjugated rabbit antimouse IgG. The coverslips were mounted on microscope slides and the fluorescence patterns were examined and photographed using a Zeiss Photomicroscope Ill equipped with epifluorescence optics for fluorescein. […] PBS containing 100 nM TRITC-phalloidin was then added and the mixture was allowed to incubate for 45 min at 37° C. The cells were washed rapidly three times with PBS before the coverslips were mounted and immediately photographed as described above.
After 24 hours, microtubules and vimentin intermediate filaments were visualized by indirect immunofluorescence and microfilaments were stained using TRITC-phalloidin. The morphological effects of each drug were examined.
After 24 hours, microtubule organization was examined by immunofluorescence as described above.
The cells were then washed and incubated in drug-free medium for periods of 1 hour or 24 hours.

The test system of data set [3] is murine leukemia (L1210 or P388), murine solid tumor, human solid tumor and low malignancy fibroblast (LML) cells. To be noted: for Differential in Zone Units, Corbett Assay: μg/disk as for E3; for Type of Cytotoxicity, Corbett Assay: μg/disk: 1 12.5, 2 25, 3 25, 4 20, 5 2.9, 6 250, 8 30, 5-FU 2.5, VP-16 5, taxol 0.2, ^c selective against drug-sensitive and drug-resistant cell lines, ^d drug-sensitive cell lines only.

In data set [4] the test system is KB (human nasopharyngeal carcinoma) cell line. Put plainly: Cytotoxicity against KB cell line. It counts as cell-based.
In data set [5] the test system is LoVo (human colon-carcinoma) cell line. Put plainly: Cytotoxicity against LoVo cell line. It counts as cell-based.
Data set [6] concerns Colon 38 (colon adenocarcinoma #38).
Description: (§1) Gross log kill is defined as T-C/3.2 Td where T is the median time in days for the tumors of the treated group to reach 750 mg, C is the median time in days for the tumors of the control group to reach 750 mg, and Td is the tumor volume doubling time.
Another data set has as its system H125 Human Adenosq-lung. Particulars: Exp # 1823; SC H125 Human Adenosq-lung, SCID mice; 8 inj. IV; total dose 14.4 mg/kg.
Data set [7] has as its system murine and human tumors implanted in mice. Particulars: for lethal toxicity observed during testing: in vivo testing.
Description: as §1
For another data set, the system named is strains of Cryptococcus. Particulars: found by researchers at Merck; cited from earlier work.
Another data set relates to MX-1 Human Breast. Put plainly: In vivo activity, SC MX-1 tumor. Particulars: Exp # 1806; SC MX-1 Human Breast, SCID mice; 8 inj. IV; total dose 12 mg/kg.
In another data set the test system is M17/0 (Adr. Sens.). Put plainly: In vivo activity, SC M17/0 tumor. To be noted: Exp # 1833; SC M17/0 (Adr. Sens.); 5 inj. IV; total dose 5.4 mg/kg.
The next data set concerns LNCaP Human Prostate. Put plainly: In vivo activity, SC LNCaP tumor. Particulars: Exp # 1841, 6 inj. IV, total dose 6.5 mg/kg.
Data set [8] has as its system Human Sm Cell L. DMS273 SCID. Put plainly: In vivo activity, SC DMS273 tumor. To be noted: Exp # 1596, 6 inj. IV, total dose 7.3 mg/kg.
Description: as §1
Data set [9] concerns Colon 51 (colon adenocarcinoma #51). Put plainly: In vivo activity, SC Colon 51 tumor.
Description: as §1
The test system of another data set is Mam 16/C (mammary #16/C). Put plainly: In vivo activity, SC Mam 16/C tumor.
Data set [10] has as its system SKOV3 (human ovarian carcinoma) cell line. Put plainly: Cytotoxicity against SKOV3 cell line. Particulars: Table 2.
Data set [11] deals with Mam 16/Taxol (taxol-resistant mammary #16/C/RP). Put plainly: In vivo activity, SC Mam 16/Taxol tumor. Particulars: Exp # 1733, 5 inj. IV, total dose 16.5 mg/kg.
Description: as §1
Data set [12] has as its system Panc 03 (pancreatic ductal adenocarcinoma #03, P03). Particulars: Exp # 1825; SC P03; 11 inj. IV; 106 mg/kg TD.
Description: as §1
Where [13] appears, read: 24 hours, 2 μM cytochalasin B, 100 nM vinblastine or 10 nM cryptophycin compounds.
Setting [14] is: Exp # 1560, SC Colon 38, 8 inj. IV, total dose 10.3 mg/kg.
Setting [15] is: Exp # 1636, 7 inj. IV, total dose 28.1 mg/kg.
Setting [16] is: Exp # 1720, 5 inj. IV, total dose 13.2 mg/kg.
[17] abbreviates: Exp # 1769, SC C38, 15 inj. IV, 45 mg/kg TD.
Setting [18] is: Exp # 1887B, SC C38, 6 inj. IV, 30 mg/kg TD.
The mark [19] stands for this setting: Exp # 1900, 9 inj. IV, 67.5 mg/kg TD.
Where [20] appears, read: Exp # 1885, 7 inj. IV, 21.3 mg/kg TD.

Description for H125 Human Adenosq-lung: as §1
Description for LNCaP Human Prostate: as §1
Description for M17/0 (Adr. Sens.): as §1
Description for MX-1 Human Breast: as §1
Description for Mam 16/C (mammary #16/C): as §1

For `CC[C@]1(O)C[C@@H]2CN(CCc3c([nH]c4ccccc34)[C@@](C(=O)OC)(c3cc4c(cc3OC)N(C)[C@H]3[C@@](O)(C(=O)OC)[C@H](OC(C)=O)[C@]5(CC)C=CCN6CC[C@]43[C@@H]65)C2)C1` [vinblastine], the “increase in cell number in the 24 hours following removal of the drug” value in data set [1] is recorded as “approximately 3 fold”. Moreover, the “reversibility of microtubule depolymerization after removal of drug” value in data set [2] (100 nM vinblastine or 10 nM cryptophycins for 24 hr, then drug-free medium 1 hour or 24 hours) is reported as “complete morphological recovery by 24 hour”. For the same compound, the “microtubule depolymerization after taxol pretreatment” value in data set [2] (3 hours 10 μM taxol, then 100 nM vinblastine or 10 nM cryptophycin compound, 24 hours) was “pretreatment with taxol prevented microtubule depolymerization in response to vinblastine”. In [2] (setting [13]), the effect on microfilaments result was “Neither compound affected microfilament organization” and the “effect on vimentin intermediate filaments” value is listed as “vimentin intermediate filaments collapsed”.
For `CC(=O)O[C@H]1C(=O)[C@@]2(C)[C@H]([C@H](OC(=O)c3ccccc3)[C@]3(O)C[C@H](OC(=O)[C@H](O)[C@@H](NC(=O)c4ccccc4)c4ccccc4)C(C)=C1C3(C)C)[C@]1(OC(C)=O)CO[C@@H]1C[C@@H]2O` [taxol, reference compound], the “increase in cell number in the 24 hours following removal of the drug” value in data set [1] is on record as 0.2- to 0.4 fold. In data set [3], the “Differential in Zone Units, Corbett Assay” value (“Differential in Zone Units” for short) is no less than 400 Zone Units and the “Type of Cytotoxicity, Corbett Assay” value is listed as “M/H/T”.
The T/C is the result in the treated group divided by that in the control group, in per cent. As to `COc1ccc(C[C@H]2NC(=O)/C=C/C[C@@H]([C@H](C)[C@H]3O[C@@H]3c3ccccc3)OC(=O)[C@H](CC(C)C)OC(=O)[C@H](C)CNC2=O)cc1Cl` [Cryptophycin 1], the entries for the “KB IC50” value in data set [4] (Table 1) and in data set [4] (Table 2) were 0.005 ng/mL and 0.0025 ng/mL, respectively. The “LoVo IC50” value is reported as 0.003 ng/mL in [5] (Table 1) and 0.001 ng/mL in data set [5] (Table 2). Moreover, the “Differential in Zone Units” value in data set [3] was greater than 400 Zone Units. For the same compound, the “Type of Cytotoxicity, Corbett Assay” value in data set [3] is listed as “E/T”. The Cures (in [6] (setting [14]); in the data set with H125 Human Adenosq-lung; with MX-1 Human Breast; in data set [8]; in the data set with Mam 16/C (mammary #16/C) (setting [16])) was 0/5 in each case. The “Log Kill” value was 1.5 in data set [6] (setting [14]); 1.1 in the data set on H125 Human Adenosq-lung; 2.0 with MX-1 Human Breast; less than 1 in the data set on M17/0 (Adr. Sens.); less than 1 in data set [8]; 1.3 in data set [9] (setting [15]). In addition, the “Log Kill” value in the data set with Mam 16/C (mammary #16/C) (setting [16]) was determined as 1.4; in data set [11], 1.8. Further, the T/C in data set [6] (setting [14]) amounted to 6%; in the data set on H125 Human Adenosq-lung, 9%; in the data set on MX-1 Human Breast it was 3%; with M17/0 (Adr. Sens.), 23%; in the data set on LNCaP Human Prostate, 26%; in data set [8], 27%. Further, the figures for the T/C (in data set [9] (setting [15]); in the data set with Mam 16/C (mammary #16/C) (setting [16]); in data set [11]) were 7%, 5% and 2%, respectively. In addition, the “% Body Wt. Loss at Nadir” value was -15% with H125 Human Adenosq-lung; -3% with MX-1 Human Breast; -10% in the data set with M17/0 (Adr. Sens.); -6% in the data set with LNCaP Human Prostate; 0% in data set [8]; -11% in data set [9] (setting [15]). In addition, the “% Body Wt. Loss at Nadir” value in the data set with Mam 16/C (mammary #16/C) (setting [16]) was -1%; in data set [11] it was 0%. Also, the dead with H125 Human Adenosq-lung was 1/5. Further, the “tumor burden T/C” value in data set [7] (five early stage murine tumors (colon #38, #51, taxol-sensitive and taxol-resistant mammary #16/C/RP, pancreatic #03) and MX-1 breast, H125 lung in SCID mice) is recorded as “less than 10%”. For the same compound, in data set [7], the “lethal toxicity observed during testing” value is on record as “attributed to leucopenia”. The “activity against strains of Cryptococcus” value in the data set on strains of Cryptococcus was “very active against strains of Cryptococcus”. The “SKOV3 IC50” value in data set [10] amounted to 0.026 ng/mL.
With `COc1ccc(C[C@H]2NC(=O)/C=C/C[C@@H]([C@H](C)[C@@H](O)[C@@H](Cl)c3ccccc3)OC(=O)[C@H](CC(C)C)OC(=O)[C@H](C)CNC2=O)cc1Cl` [Cryptophycin 8], the “KB IC50” value in [4] (Table 1) was 0.0002 ng/mL; in data set [4] (Table 2), 0.01 ng/mL. In addition, the “LoVo IC50” value in [5] (Table 1) is given as 0.01 ng/mL; in data set [5] (Table 2) it was 0.0022 ng/mL. In [3], the “Differential in Zone Units” value is reported as greater than 500 Zone Units. For the same compound, in [3], the “Type of Cytotoxicity, Corbett Assay” value is “E/T”. The “% Body Wt. Loss at Nadir” value in data set [6] (setting [17]) was -2%; in data set [12], -6%; in data set [9] (setting [19]), -1%; with Mam 16/C (mammary #16/C) (setting [20]), -4.5%. The Cures in [6] (setting [17]) is 0/5; in [6] (setting [18]), 1/5; in data set [12], 0/5; in the data set on Mam 16/C (mammary #16/C) (setting [20]) it was 0/5. Further, the “Log Kill” value in data set [6] (setting [18]) was found to be 2.8; in [12], 4.6; in data set [9] (setting [19]) it was 1.8; in the data set with Mam 16/C (mammary #16/C) (setting [20]), 2.5. The T/C in data set [6] (setting [18]) is 0%; in data set [12], 4%; in data set [9] (setting [19]) it was 7%; with Mam 16/C (mammary #16/C) (setting [20]), 6%. Also, the “tumor burden T/C” value in [7] (all of the tumors tested to date) is given as less than 10%. For the same compound, the “lethal toxicity observed during testing” value in data set [7] is listed as “attributed to leucopenia”. The “gross log kill activity ratings” value in data set [7] (tumors implanted in mice) is recorded as “+++ to ++++”. Besides, the “SKOV3 IC50” value in data set [10] was 0.15 ng/mL.
On to `C=C1[C@@H](C)[C@H]2[C@H](Cc3ccccc3)NC(=O)[C@]23OC(=O)/C=C/[C@H](O)CCC[C@@H](C)C/C=C/[C@H]3[C@@H]1O` [Cytochalasin B, cytochalasin B], for which, in data set [2] (setting [13]), the effect on microtubules entry is “did not affect the distribution of either microtubules or intermediate filaments” and the “effect on vimentin intermediate filaments” value is reported as “did not affect the distribution of either microtubules or intermediate filaments”.
